Each structure is given as a SMILES string.

The assay concerns the target T1, CRTH2 (Homo sapiens, UniProt Q9Y5Y4).
T1 construct: expressed in transfected cells; host or cells: CHO cells
T1 sequence (Q9Y5Y4 1-395): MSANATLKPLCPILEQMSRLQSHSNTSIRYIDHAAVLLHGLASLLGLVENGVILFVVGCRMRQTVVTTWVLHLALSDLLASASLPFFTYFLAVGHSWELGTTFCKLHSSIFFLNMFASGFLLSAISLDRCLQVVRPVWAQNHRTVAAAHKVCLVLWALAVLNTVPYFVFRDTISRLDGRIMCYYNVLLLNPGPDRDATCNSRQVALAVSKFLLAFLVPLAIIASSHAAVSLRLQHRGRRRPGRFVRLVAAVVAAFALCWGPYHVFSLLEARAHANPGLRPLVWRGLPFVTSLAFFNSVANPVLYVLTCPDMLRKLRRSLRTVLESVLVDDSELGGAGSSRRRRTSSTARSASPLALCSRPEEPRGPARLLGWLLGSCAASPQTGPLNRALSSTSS
The assay can be described thus: FRET based competitive immunoassay (cAMP) in CRTH2 expressing CHO cells. The class given is cell-based. The settings on record: CRTH2 expressing CHO cells incubated with forskolin and PGD2; Eu3+ cryptate-labeled anti-cAMP and d2-labeled cAMP. The protocol:
FRET Assay: To evaluate potency compounds were tested in a FRET based competitive immunoassay in which CRTH2 expressing CHO cells were incubated in the presence of forskolin and PGD2 along with Eu3+ cryptate-labeled anti-cAMP and d2-labeled cAMP.
Broadly, the IC50 is the concentration that gives 50% inhibition. A high value points to weaker potency. Take `Cc1c(Cc2ccc(=O)n(CC(F)(F)F)n2)c2cc(F)ccc2n1CC(=O)O` [Example 345, (5-fluoro-2-methyl-3-{[6-oxo-1-(2,2,2-trifluoroethyl)-1,6-dihydropyridazin-3-yl]-methyl}-1H-indol-1-yl)acetic acid]: the IC50 is 31 nM.

`Cc1c(-c2ccc(=O)n(CCCC(F)(F)F)c2)c2cc(F)ccc2n1CC(=O)O` [Example 297, 2-(5-fluoro-2-methyl-3-(6-oxo-1-(4,4,4-trifluorobutyl)-1,6-dihydropyridin-3-yl)-1H-indol-1-yl)acetic acid] displayed a 50% inhibitory concentration (IC50) of 38 nM.

For `Cc1c(-c2ccc(=O)n(Cc3ccc(F)cc3F)c2)c2ccccc2n1CC(=O)O` [Example 275, 2-(3-(1-(2,4-difluorobenzyl)-6-oxo-1,6-dihydropyridin-3-yl)-2-methyl-1H-indol-1-yl)acetic acid], the IC50 turned out to be 30 nM.

The compound `Cc1c(Cc2ccc(=O)n(Cc3ccc(C(F)(F)F)cc3)n2)c2cc(Cl)ccc2n1CC(=O)O` [Example 81, 2-(5-Chloro-2-methyl-3-((6-oxo-1-(4-(trifluoromethyl)benzyl)-1,6-dihydropyridazin-3-yl)-methyl)-1H-indol-1-yl)acetic acid] displayed a half-maximal inhibitory concentration (IC50) of 23 nM.

Take `Cc1c(Cc2ccc(=O)n(CC(F)(F)F)c2)c2cc(Cl)ccc2n1CC(=O)O` [Example 53, 2-(5-Chloro-2-methyl-3-((6-oxo-1-(2,2,2-trifluoroethyl)-1,6-dihydropyridin-3-yl)methyl)-1H-indol-1-yl)acetic acid]: the IC50 came out at 55 nM. This IC50 is about 2.4-fold higher than that of the compound before.

In the case of `Cc1c(-c2ccc(=O)n(Cc3ccccc3)n2)c2cc(F)ccc2n1CC(=O)O` [Example 324, 2-(3-(1-benzyl-6-oxo-1,6-dihydropyridazin-3-yl)-5-fluoro-2-methyl-1H-indol-1-yl)-acetic acid], the IC50 came to 6 nM.

Compound `Cc1c(-c2ccc(=O)n(Cc3cccc(F)c3F)c2)c2cc(F)ccc2n1CC(N)=O` [Example 301, 2-(3-(1-(2,3-difluorobenzyl)-6-oxo-1,6-dihydropyridin-3-yl)-5-fluoro-2-methyl-1H-indol-1-yl)acetamide] yielded an IC50 greater than 2000 nM.

`Cc1c(-c2nn(Cc3ccc(OC(F)(F)F)cc3)c(=O)c3ccccc23)c2ccccc2n1CC(=O)O` [Example 170, 2-(2-methyl-3-(4-oxo-3-(4-(trifluoromethoxy)benzyl)-3,4-dihydrophthalazin-1-yl)-1H-indol-1-yl)acetic acid] came in with an IC50 of 25 nM.

As for `Cc1ccc2c(c1)c(-c1ccc(=O)n(Cc3ccccc3)n1)c(C)n2CC(=O)O` [Example 191, 2-(3-(1-benzyl-6-oxo-1,6-dihydropyridazin-3-yl)-2,5-dimethyl-1H-indol-1-yl)acetic acid], the IC50 was 64 nM.

For the compound `Cc1c(-c2ccc(=O)n(Cc3ccc(F)cc3F)c2)c2cc(F)ccc2n1CC(=O)O` [Example 273, 2-(3-(1-(2,4-difluorobenzyl)-6-oxo-1,6-dihydropyridin-3-yl)-5-fluoro-2-methyl-1H-indol-1-yl)acetic acid], the IC50 is 28 nM.

As to `Cc1c(-c2nn(Cc3nc4cc(F)ccc4s3)c(=O)c3ccccc23)c2cc(F)ccc2n1CC(=O)O` [Example 114, 2-(5-fluoro-3-(3-((5-fluorobenzo[d]thiazol-2-yl)methyl)-4-oxo-3,4-dihydro-phthalazin-1-yl)-2-methyl-1H-indol-1-yl)acetic acid], the IC50 was determined as 13 nM. This IC50 lies about 2.2-fold lower than the previous one.

`Cc1c(-c2ccc(=O)n(Cc3ccc(S(C)(=O)=O)cc3)n2)c2cc(F)ccc2n1CC(=O)O` [Example 73, 2-(5-fluoro-2-methyl-3-(1-(4-(methylsulfonyl)benzyl)-6-oxo-1,6-dihydro-pyridazin-3-yl)-1H-indol-1-yl)acetic acid] had an IC50 of 76 nM. This IC50 lies about 5.8-fold higher than the previous one.

Compound `Cc1c(Cc2ccc(=O)n(Cc3cc(F)c(F)cc3F)n2)c2cc(F)ccc2n1CC(=O)O` [Example 193, 2-(5-fluoro-2-methyl-3-((6-oxo-1-(2,4,5-trifluorobenzyl)-1,6-dihydro-pyridazin-3-yl)methyl)-1H-indol-1-yl)acetic acid] displayed an IC50 of 8 nM.

Take `Cc1c(-c2nn(Cc3ccc(F)cc3F)c(=O)c3ccccc23)c2cc(F)ccc2n1CC(=O)O` [Example 64, 2-(3-(3-(2,4-difluorobenzyl)-4-oxo-3,4-dihydrophthalazin-1-yl)-5-fluoro-2-methyl-1H-indol-1-yl)acetic acid]: the IC50 came out at 9 nM.

In turn, `Cc1c(-c2ccc(=O)n(Cc3c(F)cccc3F)c2)c2cc(F)ccc2n1CC(=O)O` [Example 268, 2-(3-(1-(2,6-difluorobenzyl)-6-oxo-1,6-dihydropyridin-3-yl)-5-fluoro-2-methyl-1H-indol-1-yl)acetic acid] yielded an IC50 of 7 nM. This IC50 and that of the compound before are within 1.5-fold of each other.

Regarding `COc1ccc(C(=O)n2c(C)c(-c3ccc(=O)n(Cc4ccccc4)n3)c3cc(F)ccc32)cc1` [Example 262a, 2-benzyl-6-(5-fluoro-1-(4-methoxybenzoyl)-2-methyl-1H-indol-3-yl)-pyridazin-3(2H)-one], the IC50 was greater than 10000 nM.

Regarding `Cc1c(Cc2ccc(=O)n(C(C)C)c2)c2cc(F)ccc2n1CC(=O)O` [Example 27, 2-(5-fluoro-3-((1-isopropyl-6-oxo-1,6-dihydropyridin-3-yl)methyl)-2-methyl-1H-indol-1-yl)acetic acid], the IC50 was determined as 137 nM.

As to `Cc1c(-c2cn(CC(C)(C)C)c(=O)c3ccccc23)c2cc(F)ccc2n1CC(=O)O` [Example 257, 2-(5-fluoro-2-methyl-3-(2-neopentyl-1-oxo-1,2-dihydroisoquinolin-4-yl)-1H-indol-1-yl)acetic acid], the half-maximal inhibitory concentration (IC50) was determined as 3 nM.

`Cc1c(-c2nn(CC(F)(F)F)c(=O)c3ccccc23)c2cc(F)ccc2n1CC(=O)O` [Example 124, 2-(5-fluoro-2-methyl-3-(4-oxo-3-(2,2,2-trifluoroethyl)-3,4-dihydro-phthalazin-1-yl)-1H-indol-1-yl)acetic acid] returned an IC50 of 8 nM.

`Cc1c(-c2nn(Cc3ccccc3)c(=O)c3ccccc23)c2cc(S(C)(=O)=O)cc(F)c2n1CC(=O)O` [Example 15, 2-(3-(3-Benzyl-4-oxo-3,4-dihydrophthalazin-1-yl)-7-fluoro-2-methyl-5-(methylsulfonyl)-1H-indol-1-yl)acetic acid] gave an IC50 of 214 nM.

`Cc1c(-c2nn(Cc3c(F)cccc3F)c(=O)c3ccccc23)c2cc(Cl)ccc2n1CC(=O)O` [Example 101, 2-(5-chloro-3-(3-(2,6-difluorobenzyl)-4-oxo-3,4-dihydrophthalazin-1-yl)-2-methyl-1H-indol-1-yl)acetic acid] displayed an IC50 of 10 nM. This IC50 lies about 21-fold lower than the previous one.

As to `COC(F)(F)Cn1cc(-c2c(C)n(CC(=O)O)c3ccccc23)c2ccccc2c1=O` [Example 253, 2-(3-(2-(2,2-difluoro-2-methoxyethyl)-1-oxo-1,2-dihydroisoquinolin-4-yl)-2-methyl-1H-indol-1-yl)acetic acid], the IC50 was determined as 9 nM.

In the case of `Cc1c(-c2nn(C)c(=O)c3ccccc23)c2cc(F)ccc2n1CC(=O)O` [Example 120, 2-(5-fluoro-2-methyl-3-(3-methyl-4-oxo-3,4-dihydrophthalazin-1-yl)-1H-indol-1-yl)acetic acid], the half-inhibitory concentration (IC50) amounted to 201 nM. This IC50 lies about 22-fold higher than the previous one.

For the compound `Cc1c(-c2nn(CC(N)=O)c(=O)c3ccccc23)c2cc(Cl)ccc2n1CC(=O)O` [Example 259c, 2-(3-(3-(2-amino-2-oxoethyl)-4-oxo-3,4-dihydrophthalazin-1-yl)-5-chloro-2-methyl-1H-indol-1-yl)acetic acid], the concentration for half-maximal inhibition (IC50) is 23 nM.

On to `Cc1c(-c2nn(CC3CC3)c(=O)c3ccccc23)c2cc(Cl)ccc2n1CC(=O)O` [Example 108, 2-(5-chloro-3-(3-(cyclopropylmethyl)-4-oxo-3,4-dihydrophthalazin-1-yl)-2-methyl-1H-indol-1-yl)acetic acid], for which the IC50 came out at 22 nM.

Compound `Cc1c(-c2nn(Cc3nc4cc(F)ccc4s3)c(=O)c3ccccc23)c2cc(Cl)ccc2n1CC(=O)O` [Example 99, 2-(5-chloro-3-(3-((5-fluorobenzo[d]thiazol-2-yl)methyl)-4-oxo-3,4-dihydrophthalazin-1-yl)-2-methyl-1H-indol-1-yl)acetic acid] yielded a half-maximal inhibitory concentration (IC50) of 10 nM.

`Cc1c(-c2nn(CC(C)C)c(=O)c3ccccc23)c2cc(F)ccc2n1CC(=O)O` [Example 327, {5-fluoro-2-methyl-3-[3-(2-methylpropyl)-4-oxo-3,4-dihydrophthalazin-1-yl]-1H-indol-1-yl}acetic acid] showed a 50% inhibitory concentration (IC50) of 13 nM.

Compound `Cc1c(-c2ccc(=O)n(Cc3ccccc3)n2)c2cc(Cl)cc(Cl)c2n1CC(=O)O` [Example 234, 2-(3-(1-benzyl-6-oxo-1,6-dihydropyridazin-3-yl)-5,7-dichloro-2-methyl-1H-indol-1-yl)acetic acid] gave an IC50 of 1000 nM.

For `Cc1c(-c2ccc(=O)n(CC(C)C)c2)c2ccccc2n1CC(=O)O` [Example 287, 2-(3-(1-isobutyl-6-oxo-1,6-dihydropyridin-3-yl)-2-methyl-1H-indol-1-yl)-acetic acid], the IC50 came out at 305 nM.

`Cc1c(Cc2ccc(=O)n(Cc3ccc(F)cc3F)c2)c2cc(F)ccc2n1CC(=O)O` [Example 20, 2-(3-((1-(2,4-Difluorobenzyl)-6-oxo-1,6-dihydropyridin-3-yl)methyl)-5-fluoro-2-methyl-1H-indol-1-yl)acetic acid] registered an IC50 of 5 nM.

On to `Cc1c(-c2ccc(=O)n(Cc3cccc(F)c3F)c2)c2cc(F)ccc2n1CC(=O)N(C)C` [Example 300, 2-(3-(1-(2,3-difluorobenzyl)-6-oxo-1,6-dihydropyridin-3-yl)-5-fluoro-2-methyl-1H-indol-1-yl)-N,N-dimethylacetamide], for which the concentration for half-maximal inhibition (IC50) was greater than 2000 nM.

Values taken from patent US20110105509A1 (Wyeth, LLC, priority 2009, published 2011).
